Assays:
plasma creatinine = experiment: Rat high-fat diet study: plasma creatinine; format: in vivo, Sprague Dawley male rats; conditions: HFD rats, once daily oral gavage in weeks four and five, fold change relative to group 3 (HFD reference), * = P < 0.05
Protocol: (§1) The Ethics Committee of Atatürk University approved all experimental protocols about animal care, handling and experimentation. All experiments were performed in accordance with relevant guidelines and regulations. 44 Sprague Dawley male rats (10-12 weeks old) weighing 375-415 g were obtained from Atatürk University Experimental Research Center (ATADEM) and housed at 22±2° C. with 50±5% humidity on a 12 hr light/dark cycle.
(§2) Chow diet (CD) and a high-fat diet (HFD) were used to fed the animals in this study. The CD was composed of wheat, wheat bran, rice polishing and fish meal, with approximately 25% proteins, 60% carbohydrates and 15% fat in terms of the caloric content. On the other hand, HFD was composed of normal food, beef tallow, sugar and condensed milk and contained approximately 14% proteins, 37% carbohydrates and 49% fat in terms of the caloric content.
(§3) Following 1-week habituation, the rats were separated into two groups: a control group (Group 1, n=4), which was fed with a regular CD; and the HFD group (n=40), which was fed with HFD. After three weeks, four rats in the HFD group (Group 2) were randomly sacrificed and the remaining 36 rats in the HFD group were randomly divided into nine sub-groups (Groups 3-11, four rats in each subgroup).
(§4) Groups 3-11 received the following treatments during weeks four and five: • Group 3 received only the HFD (reference) • Group 4 received the HFD and Serine (1000 mg/kg once daily by oral gavage) • Group 5 received the HFD and NAC (300 mg/kg once daily by oral gavage) • Group 6 received the HFD and L-Carnitine tartrate (LCAT) (100 mg/kg once daily by oral gavage) • Group 7 received the HFD and Nicotinamide riboside chloride (NRCl) (120 mg/kg once daily by oral gavage) • Group 8 received the HFD and Nicotinamide (NA) (120 mg/kg once daily by oral gavage) • Group 9 received the HFD, Serine (1000 mg/kg once daily by oral gavage), NAC (300 mg/kg once daily by oral gavage) and LCAT (100 mg/kg once daily by oral gavage) • Group 10 received the HFD, Serine (1000 mg/kg once daily by oral gavage), NAC (300 mg/kg once daily by oral gavage), LCAT (100 mg/kg/day) and NRCl (120 mg/kg once daily by oral gavage) • Group 11 received the HFD, Serine (1000 mg/kg once daily by oral gavage), NAC (300 mg/kg once daily by oral gavage), LCAT (100 mg/kg once daily by oral gavage) and NA (120 mg/kg once daily by oral gavage)
(§5) The body weight and food intake of the rats was recorded each week. After week five, all animals of groups 3-11 were anesthetized with isoflurane and sacrificed. Blood samples were collected from the abdominal aorta and centrifuged at 8000 rpm for 15 min at 4° C. The plasma was separated and stored at −80° C. until further analysis.
(§6) Plasma samples were thawed and analyzed for creatinine and uric acid.

plasma uric acid = experiment: Rat high-fat diet study: plasma uric acid; format: in vivo, Sprague Dawley male rats; conditions: HFD rats, once daily oral gavage in weeks four and five, fold change relative to group 3 (HFD reference), * = P < 0.05
Protocol: as §1, §2, §3, §4, §5, §6

SMILES | Creatinine Fold change (plasma creatinine) | Uric Acid Fold change (plasma uric acid)
C[N+](C)(C)C[C@H](O)CC(=O)[O-].O=C(O)C(O)C(O)C(=O)O [LCAT, L-Carnitine tartrate] | 0.89 | 0.62*
N[C@@H](CO)C(=O)O [Serine] | 0.84* | 0.72*
CC(=O)N[C@@H](CS)C(=O)O [NAC, N-acetyl cysteine] | 0.85 | 0.76
NC(=O)c1ccc[n+]([C@@H]2O[C@H](CO)[C@@H](O)[C@H]2O)c1.[Cl-] [NRCl, Nicotinamide riboside chloride] | 0.83* | 0.64*
NC(=O)c1cccnc1 [NA, Nicotinamide] | 0.96 | 0.53*

From US20240000737A1, “SUBSTANCES FOR TREATMENT OF HYPERURICAEMIA” (SCANDIBIO THERAPEUTICS AB, priority 2020, published 2024)
